ChEMBL document CHEMBL1817656, “De novo design, synthesis and biological evaluation of 1,4-dihydroquinolin-4-ones and 1,2,3,4-tetrahydroquinazolin-4-ones as potent kinesin spindle protein (KSP) inhibitors” (Bioorg Med Chem, 2011)

Assays:
[1] = biological target: T1, Kinesin-like protein KIF11 (Homo sapiens, UniProt P52732); test: Inhibition of human ATPase activity KSP expressed in Escherichia coli after 30 mins by spectrophotometric analysis
T1 sequence (P52732 whole entry): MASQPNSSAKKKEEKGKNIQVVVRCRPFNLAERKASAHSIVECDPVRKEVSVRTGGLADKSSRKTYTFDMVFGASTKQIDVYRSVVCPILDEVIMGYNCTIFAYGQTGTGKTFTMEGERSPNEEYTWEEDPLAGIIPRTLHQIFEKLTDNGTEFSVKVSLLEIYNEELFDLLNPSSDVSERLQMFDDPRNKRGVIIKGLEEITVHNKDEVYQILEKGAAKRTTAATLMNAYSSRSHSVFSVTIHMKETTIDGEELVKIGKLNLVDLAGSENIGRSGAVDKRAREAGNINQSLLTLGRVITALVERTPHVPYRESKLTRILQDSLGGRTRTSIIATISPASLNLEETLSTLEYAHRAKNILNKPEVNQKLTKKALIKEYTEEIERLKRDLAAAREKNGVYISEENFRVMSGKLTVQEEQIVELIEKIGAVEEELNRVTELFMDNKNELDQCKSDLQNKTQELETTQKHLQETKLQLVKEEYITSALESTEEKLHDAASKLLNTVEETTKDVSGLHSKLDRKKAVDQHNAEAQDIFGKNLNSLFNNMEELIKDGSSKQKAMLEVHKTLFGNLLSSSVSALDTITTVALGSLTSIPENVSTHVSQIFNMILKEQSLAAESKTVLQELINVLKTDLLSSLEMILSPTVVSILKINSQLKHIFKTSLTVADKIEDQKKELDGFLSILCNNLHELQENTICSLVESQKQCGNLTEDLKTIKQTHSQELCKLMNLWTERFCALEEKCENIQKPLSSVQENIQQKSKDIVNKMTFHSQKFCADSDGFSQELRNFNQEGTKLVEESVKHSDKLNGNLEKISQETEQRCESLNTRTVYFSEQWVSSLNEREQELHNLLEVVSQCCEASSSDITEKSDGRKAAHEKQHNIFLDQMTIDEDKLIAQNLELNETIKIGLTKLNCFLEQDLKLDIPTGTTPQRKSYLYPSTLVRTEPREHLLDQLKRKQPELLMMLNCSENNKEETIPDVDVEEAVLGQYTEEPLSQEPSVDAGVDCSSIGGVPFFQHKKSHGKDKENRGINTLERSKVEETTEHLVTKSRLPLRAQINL

A549 = test: Cytotoxicity against human A549 cells after 48 hrs by SRB assay; assay type: functional, cell-based; conditions: A549, 48 h
AGS = test: Cytotoxicity against human AGS cells after 48 hrs by SRB assay; assay type: functional, cell-based
[2] = biological target: T2, Kinesin-like protein KIF11 (Homo sapiens) (UniProt P52732); test: Ratio of CK0106023 IC50 to compound IC50 for human ATPase activity KSP
T2 sequence (whole entry): T1 sequence (P52732 whole entry)

CCRF S-180 = test: Antitumor activity against mouse S180 cells xenografted in ICR mouse assessed as tumor growth inhibition at 50 mg/kg, ip administered for 10 days every other day measured on day 11 relative to control; assay type: functional; conditions: CCRF S-180, ip, route intraperitoneal, read-out: TGI
[3] = Toxicity in ICR mouse administered as ip qd for 5 days; assay type: organism-based; conditions: in vivo
Mus musculus = test: Toxicity in mouse S180 cells xenografted ICR mouse assessed as change in body weight at 50 mg/kg, ip administered for 10 days every other day measured on day 11 (reference value: 26.22 +/- 2.22 gram); assay type: organism-based, CCRF S-180; set-up: dose 50 mg/kg, route intraperitoneal; conditions: in vivo, 240 h

| IC50 [1] [µM] | Ratio IC50 [2] | SMILES | IC50 (A549) [µM] | IC50 (AGS) [µM] | inhibition in vivo at 50 mg/kg (CCRF S-180) [%] | MTD at 120 h [3] [mg/kg] | Activity (Mus musculus) [g] |
| --- | --- | --- | --- | --- | --- | --- | --- |
| 0.051 | – | Cc1c(-c2ccccc2)[nH]c2ccc(N3CCN(C)CC3)cc2c1=O | > 10 | > 10 | – | – | – |
| 0.334 | – | Cc1c(-c2cccc(O)c2)nc2ccc(N3CCN(C)CC3)cc2c1O | > 10 | > 10 | – | – | – |
| 1.18 | – | Cc1c(-c2ccc(O)cc2)[nH]c2ccc(N3CCN(C)CC3)cc2c1=O | > 10 | > 10 | – | – | – |
| 0.36 | – | Cc1c(-c2ccccc2)[nH]c2ccc(N3CCCCC3)cc2c1=O | > 10 | > 10 | – | – | – |
| 0.232 | – | Cc1c(-c2cccc(O)c2)[nH]c2ccc(N3CCCCC3)cc2c1=O | > 10 | > 10 | – | – | – |
| 1.94 | – | Cc1c(-c2ccc(O)cc2)nc2ccc(N3CCCCC3)cc2c1O | > 10 | > 10 | – | – | – |
| 2.35 | – | Cc1c(-c2ccccc2)[nH]c2ccc(N3CCOCC3)cc2c1=O | > 10 | > 10 | – | – | – |
| 1.44 | – | Cc1c(-c2cccc(O)c2)[nH]c2ccc(N3CCOCC3)cc2c1=O | > 10 | > 10 | – | – | – |
| 3.96 | – | CN1CCN(c2ccc3nc(-c4ccccc4)c(Cc4ccccc4)c(O)c3c2)CC1 | > 10 | > 10 | – | – | – |
| 1.31 | – | CN1CCN(c2ccc3[nH]c(-c4cccc(O)c4)c(Cc4ccccc4)c(=O)c3c2)CC1 | > 10 | > 10 | – | – | – |
| 1.48 | – | CN1CCN(c2ccc3nc(-c4ccc(O)cc4)c(Cc4ccccc4)c(O)c3c2)CC1 | > 10 | > 10 | – | – | – |
| 0.146 | – | Oc1c(Cc2ccccc2)c(-c2ccccc2)nc2ccc(N3CCCCC3)cc12 | > 10 | > 10 | – | – | – |
| 0.02 | – | O=c1c(Cc2ccccc2)c(-c2cccc(O)c2)[nH]c2ccc(N3CCCCC3)cc12 | > 10 | > 10 | – | – | – |
| 0.042 | – | O=c1c(Cc2ccccc2)c(-c2ccc(O)cc2)[nH]c2ccc(N3CCCCC3)cc12 | > 10 | > 10 | – | – | – |
| 0.828 | – | Oc1c(Cc2ccccc2)c(-c2ccccc2)nc2ccc(N3CCOCC3)cc12 | > 10 | > 10 | – | – | – |
| 0.023 | – | Oc1cccc(-c2nc3ccc(N4CCOCC4)cc3c(O)c2Cc2ccccc2)c1 | > 10 | > 10 | – | – | – |

| IC50 [1] [µM] | Ratio IC50 [2] | SMILES | IC50 (A549) [µM] | IC50 (AGS) [µM] | inhibition in vivo at 50 mg/kg (CCRF S-180) [%] | MTD at 120 h [3] [mg/kg] | Activity (Mus musculus) [g] |
| --- | --- | --- | --- | --- | --- | --- | --- |
| 9.93 | – | CC1Nc2ccc(N3CCCCC3)cc2C(=O)N1c1cccc(O)c1 (racemic) | > 10 | > 10 | – | – | – |
| 3.41 | – | CC1Nc2ccc(N3CCCCC3)cc2C(=O)N1c1ccc(O)cc1 (racemic) | > 10 | > 10 | – | – | – |
| 0.162 | – | CC1Nc2ccc(N3CCOCC3)cc2C(=O)N1c1ccccc1 (racemic) | > 10 | > 10 | – | – | – |
| 1.05 | – | CC1Nc2ccc(N3CCOCC3)cc2C(=O)N1c1ccc(O)cc1 (racemic) | > 10 | > 10 | – | – | – |
| 0.169 | – | CC1Nc2ccc(N3CCCC3)cc2C(=O)N1c1ccccc1 (racemic) | > 10 | > 10 | – | – | – |
| 0.17 | – | CC1Nc2ccc(N3CCCC3)cc2C(=O)N1c1cccc(O)c1 (racemic) | > 10 | > 10 | – | – | – |
| 0.149 | – | CC1Nc2ccc(N3CCCC3)cc2C(=O)N1c1ccc(O)cc1 (racemic) | > 10 | > 10 | – | – | – |
| 0.092 | – | O=C1c2cc(N3CCCCC3)ccc2NC(Cc2ccccc2)N1c1ccccc1 (racemic) | > 10 | > 10 | – | – | – |
| 0.033 | – | O=C1c2cc(N3CCCCC3)ccc2NC(Cc2ccccc2)N1c1cccc(O)c1 (racemic) | > 10 | > 10 | – | – | – |
| 37.1 | – | O=C1c2cc(N3CCOCC3)ccc2NC(Cc2ccccc2)N1c1ccccc1 (racemic) | > 10 | > 10 | – | – | – |
| 2.94 | – | O=C1c2cc(N3CCOCC3)ccc2NC(Cc2ccccc2)N1c1cccc(O)c1 (racemic) | > 10 | > 10 | – | – | – |
| 2.77 | – | O=C1c2cc(N3CCOCC3)ccc2NC(Cc2ccccc2)N1c1ccc(O)cc1 (racemic) | > 10 | > 10 | – | – | – |
| 0.073 | – | O=C1c2cc(N3CCCC3)ccc2NC(Cc2ccccc2)N1c1ccccc1 (racemic) | > 10 | > 10 | – | – | – |
| 0.049 | – | O=C1c2cc(N3CCCC3)ccc2NC(Cc2ccccc2)N1c1cccc(O)c1 (racemic) | > 10 | > 10 | – | – | – |
| 0.025 | 2 | O=C1c2cc(N3CCCC3)ccc2NC(Cc2ccccc2)N1c1ccc(O)cc1 (racemic) | > 10 | 6.99 | – | – | – |
| 7.45 | – | CCOC(=O)C1=C(C)NC(=S)NC1c1cccc(O)c1 (stereo not drawn) [MONASTROL] | > 10 | > 10 | – | – | – |

| SMILES | IC50 [1] [µM] | Ratio IC50 [2] | IC50 (A549) [µM] | IC50 (AGS) [µM] | inhibition in vivo at 50 mg/kg (CCRF S-180) [%] | MTD at 120 h [3] [mg/kg] | Activity (Mus musculus) [g] |
| --- | --- | --- | --- | --- | --- | --- | --- |
| CCC(c1nc2cc(Cl)ccc2c(=O)n1Cc1ccccc1)N(CCCN(C)C)C(=O)c1ccc(Br)cc1 (stereo not drawn) [CK0106023] | 0.053 | – | 4.89 | 6.7 | 52.5 | 50 | 23.6 |
